One series concerns E. coli P-5101. Kind of series: In vitro antibacterial activity, twofold agar-dilution MIC. Type of series: cell-based. To be noted: Escherichia coli, P5101; E. coli P-5101; Mueller-Hinton agar, 20-hour incubation at 37 °C; calculated for free base; read-out: minimum inhibitory concentrations (MIC). On the procedure:
(§1) The figures in the table show minimum inhibitory concentrations (MIC) (µg/ml), calculated for free base. […] One loopful of an overnight culture of test organisms in Mueller-Hinton broth was inoculated onto 10 ml drug- containing agar layers in petri dishes. Bacterial inocula contained approximately 10⁶ colonyl-forming units. […] The MIC was defined as the lowest drug concentration which prevented visible bacterial growth.

Another series concerns S. aureus No. 80. The description is as above. The class given is cell-based. To be noted: Staphylococcus aureus; S. aureus No. 80; Mueller-Hinton agar, 20-hour incubation at 37 °C; calculated for free base; read-out: minimum inhibitory concentrations (MIC). On the procedure:
as §1

A further series deals with S. aureus Terajima. Described as above. The settings on record: Staphylococcus aureus; S. aureus Terajima; Mueller-Hinton agar, 20-hour incubation at 37 °C; calculated for free base; read-out: minimum inhibitory concentrations (MIC). Type of series: cell-based. On the procedure: as §1
In another series the test system is M. fermentans PG-18. Nature of the series: Antimycoplasma activity, twofold agar dilution MIC. Type of series: cell-based. To be noted: Mycoplasmopsis fermentans, PG18, 48 h; M. fermentans PG-18; Chanock agar, 37 °C for 2 days, anaerobically; calculated for free base; read-out: minimum inhibitory concentrations (MIC). The protocol:
(§2) The figures in the table show minimum inhibitory concentrations (MIC), (μg/ml), calculated for free base. Minimum inhibitory concentrations (MIC) were determined by the twofold agar dilution method. The media used were Chanock broth and agar [PPLD broth and agar (Difco) supplemented with 20 % horse serum and 10 % fresh yeast extract]. A 2-3 day broth culture of organisms was diluted with Chanock broth to a cell density of about 10^6 cells/ml. One loopful (about […]) of the organism dilution was spotted onto 10-ml drug containing Chanock agar in petri dishes using a multiple inoculator ([…] International). […] Incubation was performed anaerobically using the […] anaerobic system (BBL) for M. buccale, M. fermentans, M. hominis, M. orale and M. salivarium, and aerobically for other Mycoplasma spp. The MIC was defined as the lowest compound concentration at which no growth of organism was detected.

A further series deals with M. hominis PG-21. Nature of the series: Antimycoplasma activity, twofold agar dilution MIC. The class given is cell-based. The settings on record: Metamycoplasma hominis, PG21, 48 h; M. hominis PG-21; Chanock agar, 37 °C for 2 days, anaerobically; calculated for free base; read-out: minimum inhibitory concentrations (MIC). On the procedure: as §2
The subject of another series is M. pneumoniae Mac. Nature of the series: Antimycoplasma activity, twofold agar dilution MIC. The class given is cell-based. To be noted: Mycoplasmoides pneumoniae, 168 h; M. pneumoniae Mac; Chanock agar, 37 °C for 7 days, aerobically; calculated for free base; read-out: minimum inhibitory concentrations (MIC). On the procedure: as §2
For another series, the system named is A. laidlawii PG-8. Nature of the series: Antimycoplasma activity, twofold agar dilution MIC. The class given is cell-based. The settings on record: Acholeplasma laidlawii, PG8, 48 h; A. laidlawii PG-8; Chanock agar, 37 °C for 2 days, aerobically; calculated for free base; read-out: minimum inhibitory concentrations (MIC). On the procedure:
as §2

The subject of a further series is M. arginini G-230. Kind of series: Antimycoplasma activity, twofold agar dilution MIC. The class given is cell-based. To be noted: 48 h; M. arginini G-230; Chanock agar, 37 °C for 2 days, aerobically; calculated for free base; read-out: minimum inhibitory concentrations (MIC). The protocol:
as §2

The test system of a further series is M. salivarium PG-20. Nature of the series: Antimycoplasma activity, twofold agar dilution MIC. The class given is cell-based. The settings on record: 48 h; M. salivarium PG-20; Chanock agar, 37 °C for 2 days, anaerobically; calculated for free base; read-out: minimum inhibitory concentrations (MIC). On the procedure: as §2
A further series concerns M. buccale CH-20249. Nature of the series: Antimycoplasma activity, twofold agar dilution MIC. The class given is cell-based. The settings on record: 48 h; M. buccale CH-20249; Chanock agar, 37 °C for 2 days, anaerobically; calculated for free base; read-out: minimum inhibitory concentrations (MIC). The protocol: as §2
The subject of a further series is M. hyorhinis BST-7. Nature of the series: Antimycoplasma activity, twofold agar dilution MIC. The class given is cell-based. The settings on record: Mesomycoplasma hyorhinis, BST7, 48 h; M. hyorhinis BST-7; Chanock agar, 37 °C for 2 days, aerobically; calculated for free base; read-out: minimum inhibitory concentrations (MIC). On the procedure: as §2
A further series deals with M. orale CH-19299. Nature of the series: Antimycoplasma activity, twofold agar dilution MIC. The class given is cell-based. To be noted: po, 48 h; M. orale CH-19299; Chanock agar, 37 °C for 2 days, anaerobically; calculated for free base; read-out: minimum inhibitory concentrations (MIC). The protocol:
as §2

Another series in a line: in vivo. To be noted: mouse, po, orally given to male mice (ddY), dead mice counted after 7 days, Behrens-Kaerber method, read-out: LD₅₀. On the procedure:
A suspension containing each of compounds of this invention in various concentrations was orally given to male mice (ddY) at a dose of 0.1 ml per 10 g of body weight. The number of dead mice was counted after 7 days, and the value of median lethal dose (LD₅₀, mg/kg) was calculated in accordance with the Behrens-Kaerber method.

The subject of the next series is C. Trachomatics G/ur 931. Kind of series: Antichlamydia activity, MIC in McCoy cells (inclusion bodies). The class given is cell-based. To be noted: C. Trachomatics G/ur 931; McCoy cells, 36 °C for 40-48 hours; calculated for free base; read-out: minimum inhibitory concentrations (MIC). The protocol: (§3) The figures in the table show minimum inhibitory concentrations (MIC), (μg/ml), calculated for free base. Minimum inhibitory concentrations (MIC) were determined as follows. […] The cells were trypsinized and suspended in the same culture medium at a cell concentration of 1-2 x 10^5 cells/ml. One ml of the cell suspension was pipetted into flat-bottomed plastic tubes (14 mm in diameter) containing a cover slip (12 mm in diameter). The tubes were incubated in 5 % CO2-air at 36 °C for 20 hours. One-half ml of a chlamydial suspension (ca. 1-4 x 103 inclusion body forming units) was added into each tube, which was then centrifuged at 1500 x g for 60 minutes. The tubes were incubated for 1 hour at 36 °C. […] After further incubation at 36 °C for 40-48 hours, the cells on the cover glasses were stained with the Giemsa's solution. […] The MIC was defined as the lowest drug concentration where there were no inclusion bodies in all the cells on the cover slip.

Series [1] concerns C. Trachomatics G/ur 1448. The description is as above. Type of series: cell-based. The settings on record: C. Trachomatics G/ur 1448; McCoy cells, 36 °C for 40-48 hours; calculated for free base; read-out: minimum inhibitory concentrations (MIC). The protocol:
as §3

For series [2], the system named is C. Trachomatics G/ur 1317. The description is as above. Type of series: cell-based. The settings on record: C. Trachomatics G/ur 1317; McCoy cells, 36 °C for 40-48 hours; calculated for free base; read-out: minimum inhibitory concentrations (MIC). On the procedure:
as §3

Series [3] deals with C. Trachomatics G/ur 1242. The description is as above. The class given is cell-based. To be noted: C. Trachomatics G/ur 1242; McCoy cells, 36 °C for 40-48 hours; calculated for free base; read-out: minimum inhibitory concentrations (MIC). On the procedure: as §3

In brackets after ≈: the same amount, converted by molar mass.

For `Cc1c(F)c(N2C[C@@H](C)N[C@@H](C)C2)c(F)c2c1c(=O)c(C(=O)O)cn2C1CC1` [Compound 1, 1-cyclopropyl-6,8-difluoro-5-methyl-7-(cis-3,5-demethyl-1-piperazinyl)-1,4-dihydro-4-oxoquinoline-3-carboxylic acid], the MIC in the series with E. coli P-5101 is 0.025 µg/mL (≈ 0.0639 µM); with S. aureus No. 80, 0.0125 µg/mL (≈ 0.0319 µM); with S. aureus Terajima, 0.05 µg/mL (≈ 0.128 µM); with M. fermentans PG-18, 0.025 µg/mL (≈ 0.0639 µM); in the series on M. hominis PG-21, 0.05 µg/mL (≈ 0.128 µM); in the series with M. pneumoniae Mac it was 0.05 µg/mL (≈ 0.128 µM). For the same molecule, the MIC in the series with A. laidlawii PG-8 is 0.05 µg/mL (≈ 0.128 µM); in the series on M. arginini G-230, 0.025 µg/mL (≈ 0.0639 µM); in the series on M. salivarium PG-20, 0.1 µg/mL (≈ 0.255 µM); with M. buccale CH-20249 it was 0.025 µg/mL (≈ 0.0639 µM); with M. hyorhinis BST-7, 0.025 µg/mL (≈ 0.0639 µM); in the series with M. orale CH-19299, 0.2 µg/mL (≈ 0.511 µM). Besides, the MIC with C. Trachomatics G/ur 931 is 0.013 µg/mL (≈ 0.0332 µM); in series [1] it was 0.025 µg/mL (≈ 0.0639 µM); in series [2] it was 0.013 µg/mL (≈ 0.0332 µM); in series [3], 0.025 µg/mL (≈ 0.0639 µM). The LD50 at 168 h in “in vivo” was > 2000 mg/kg.

The values above are taken from EP0319906A2, “Novel quinoline derivatives, processes for preparation thereof and antibacterial agent containing them” (Dainippon Pharmaceutical Co., Ltd., priority 1987, dated 1989).
